Assay results published in PMC9604439, “Mutation Hotspot for Changing the Substrate Specificity of β-N-Acetylhexosaminidase: A Library of GlcNAcases” (International Journal of Molecular Sciences, 2022).

Experiments:
[1] = molecular target: T1, TfHex (β-N-acetylhexosaminidase from Talaromyces flavus) (Talaromyces flavus, UniProt G5DAA0, E332K); test: discontinuous p-nitrophenolate release assay, non-linear regression; type: biochemical; details: McIlvaine buffer pH 5.0, 25 °C; not measured to full saturation, estimate only
T1 construct: secreted via alpha-factor, pPICZαA, Pichia pastoris KM71H, cation-exchange purified; tetramer of two catalytic subunits and two non-covalently linked propeptides
T1 sequence (G5DAA0 entry or part of it E332K): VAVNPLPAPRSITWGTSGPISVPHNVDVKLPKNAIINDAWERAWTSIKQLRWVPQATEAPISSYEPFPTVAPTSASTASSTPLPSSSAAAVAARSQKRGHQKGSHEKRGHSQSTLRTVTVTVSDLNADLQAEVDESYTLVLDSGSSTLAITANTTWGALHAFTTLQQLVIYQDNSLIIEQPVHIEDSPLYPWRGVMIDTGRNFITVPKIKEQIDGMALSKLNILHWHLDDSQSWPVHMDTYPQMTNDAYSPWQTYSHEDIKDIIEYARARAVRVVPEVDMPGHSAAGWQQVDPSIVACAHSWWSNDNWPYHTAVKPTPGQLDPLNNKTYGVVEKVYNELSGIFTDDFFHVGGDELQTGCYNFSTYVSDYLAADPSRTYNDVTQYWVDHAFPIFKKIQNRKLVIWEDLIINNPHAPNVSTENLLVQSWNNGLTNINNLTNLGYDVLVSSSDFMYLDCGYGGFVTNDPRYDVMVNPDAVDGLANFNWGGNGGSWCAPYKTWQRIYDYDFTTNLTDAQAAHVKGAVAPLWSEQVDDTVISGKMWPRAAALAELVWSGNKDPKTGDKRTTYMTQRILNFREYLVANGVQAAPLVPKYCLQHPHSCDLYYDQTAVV
Description: discontinuous p-nitrophenolate release assay, non-linear regression on TfHex (β-N-acetylhexosaminidase from Talaromyces flavus) | for Glu332Lys TfHex, only estimates of kinetic parameters are presented

[2] = molecular target: T2, TfHex (β-N-acetylhexosaminidase from Talaromyces flavus) (Talaromyces flavus, UniProt G5DAA0, E332H); test: as above; type: biochemical; details: McIlvaine buffer pH 5.0, 25 °C; not measured to full saturation
T2 construct: secreted via alpha-factor, pPICZαA, Pichia pastoris KM71H, cation-exchange purified; tetramer of two catalytic subunits and two non-covalently linked propeptides
T2 sequence (G5DAA0 entry or part of it E332H): as the sequence (G5DAA0 entry or part of it E332K) above, with K315H counted along it

## CC(=O)N[C@H]1[C@H](Oc2ccc([N+](=O)[O-])cc2)O[C@H](CO)[C@@H](O)[C@@H]1O [pNP-GlcNAc, p-Nitrophenyl 2-acetamido-2-deoxy-β-D-glucopyranoside]
[1]
  Km: > 7 mM
[2]
  Km: > 7 mM
